Laboratory results published in US20240384350A1, “METHODS OF TREATING CANCER WITH KINASE INHIBITORS” (BOARD OF REGENTS, THE UNIVERSITY OF TEXAS SYSTEM, priority 2021, published 2024).

Experiments:
Experiment in all cases: Ba/F3 drug screening, Cell Titer Glo, IC50 Mut/WT
Assay type in all cases: cell-based
EGFR Ex19del/T790M/L792H = target: T1, EGFR Ex19del/T790M/L792H (Homo sapiens, UniProt P00533, DEL746-750/L792H/T790M); conditions: T790M-like-3R, 72 hours
T1 construct: expressed in transfected cells; host or cells: Ba/F3
Method: (§1) Data represent the ratio of the IC50 value for a given TKI for cells with a T790M-like-3R EGFR mutation to the IC50 value for cells with wildtype EGFR.
(§2) Ba/F3 cell generation, drug screening, and IC50 approximations. Ba/F3 cells were obtained as a gift from Dr. Gordon Mills (MD Anderson Cancer Center), and maintained in RPMI (Sigma) containing 10% FBS, 1% penicillin/streptomycin, and 10 ng/ml recombinant mIL-3 (R&D Biosystems). To establish stable Ba/F3 cell lines, Ba/F3 cells were transduced with retroviruses containing mutant EGFR plasmids for 12-24 hours.
(§3) After 48-72 hours of transduction, 2 μg/ml puromycin (Invitrogen) was added to Ba/F3 cell lines in complete RPMI. To select for EGFR positive cell lines, cells were stained with PE-EGFR (Biolegend) and sorted by FACS. After sorting, EGFR positive cells were maintained in RPMI containing 10% FBS, 1% penicillin/streptomycin, and 1 ng/ml EGF to support cell viability. […] Shortly, cells were plated in 384-well plates (Greiner Bio-One) at 2000-3000 cells per well in technical triplicate. Seven different concentrations of TKIs or DMSO vehicle were added to reach a final volume of 40 μL per well. After 72 hours, 11 μL of Cell Titer Glo (Promega) was added to each well. Plates were incubated for a minimum of 10 minutes, and bioluminescence was determined using a FLUOstar OPTIMA plate reader (BMG LABTECH). Raw bioluminescence values were normalized to DMSO control treated cells, and values were plotted in GraphPad Prism. […] Drug screens were performed in technical triplicate on each plate and either duplicate or triplicate biological replicates. […] Statistical differences between groups were determined by ANOVA as described in the figure legends.

EGFR S768I/T790M = target: T2, EGFR S768I/T790M (Homo sapiens, UniProt P00533, S768I/T790M); conditions: T790M-like-3S, 72 hours
T2 construct: expressed in transfected cells; host or cells: Ba/F3
Method: (§4) Data represent the ratio of the IC50 value for a given TKI for cells with a T790M-like-3S EGFR mutation to the IC50 value for cells with wildtype EGFR.
as §2
(§5) After 48-72 hours of transduction, 2 μg/ml puromycin (Invitrogen) was added to Ba/F3 cell lines in complete RPMI. To select for EGFR positive cell lines, cells were stained with PE-EGFR (Biolegend) and sorted by FACS. After sorting, EGFR positive cells were maintained in RPMI containing 10% FBS, 1% penicillin/streptomycin, and 1 ng/ml EGF to support cell viability. Drug screening was performed as previously described^41,42. Shortly, cells were plated in 384-well plates (Greiner Bio-One) at 2000-3000 cells per well in technical triplicate. Seven different concentrations of TKIs or DMSO vehicle were added to reach a final volume of 40 μL per well. After 72 hours, 11 μL of Cell Titer Glo (Promega) was added to each well. Plates were incubated for a minimum of 10 minutes, and bioluminescence was determined using a FLUOstar OPTIMA plate reader (BMG LABTECH). Raw bioluminescence values were normalized to DMSO control treated cells, and values were plotted in GraphPad Prism. […] Drug screens were performed in technical triplicate on each plate and either duplicate or triplicate biological replicates.

EGFR E709A = target: T3, EGFR E709A (Homo sapiens, UniProt P00533, E709A)
T3 construct: expressed in transfected cells; host or cells: Ba/F3

EGFR L833V = target: T4, EGFR L833V (Homo sapiens, UniProt P00533, L833V); conditions: Classical-Like, 72 hours
T4 construct: expressed in transfected cells; host or cells: Ba/F3 cells, retroviral pBabe-Puro vector
Method: Data represent the ratio of the IC50 value for a given TKI for cells with a classical-like EGFR mutation to the IC50 value for cells with wildtype EGFR.
as §2
After 48-72 hours of transduction, 2 μg/ml puromycin (Invitrogen) was added to Ba/F3 cell lines in complete RPMI. To select for EGFR positive cell lines, cells were stained with PE-EGFR (Biolegend) and sorted by FACS. After sorting, EGFR positive cells were maintained in RPMI containing 10% FBS, 1% penicillin/streptomycin, and 1 ng/ml EGF to support cell viability. […] Shortly, cells were plated in 384-well plates (Greiner Bio-One) at 2000-3000 cells per well in technical triplicate. Seven different concentrations of TKIs or DMSO vehicle were added to reach a final volume of 40 μL per well. After 72 hours, 11 μL of Cell Titer Glo (Promega) was added to each well. Plates were incubated for a minimum of 10 minutes, and bioluminescence was determined using a FLUOstar OPTIMA plate reader (BMG LABTECH). Raw bioluminescence values were normalized to DMSO control treated cells, and values were plotted in GraphPad Prism. […] Drug screens were performed in technical triplicate on each plate and either duplicate or triplicate biological replicates.

EGFR D761N = target: T5, EGFR D761N (Homo sapiens, UniProt P00533, D761N); conditions: Classical-Like, 72 hours
T5 construct: expressed in transfected cells; host or cells: Ba/F3 cells, retroviral pBabe-Puro vector

EGFR G724S T790M = target: T6, EGFR G724S T790M (Homo sapiens, UniProt P00533, G724S/T790M); conditions: T790M-like-3R, 72 hours
T6 construct: expressed in transfected cells; host or cells: Ba/F3
Method: as §1, §2, §3

EGFR T790M = target: T7, EGFR T790M (Homo sapiens, UniProt P00533, T790M); conditions: T790M-like-3S, 72 hours
T7 construct: expressed in transfected cells; host or cells: Ba/F3
Method: as §4, §2, §5

EGFR A763insLQEA = target: T8, EGFR A763insLQEA (Homo sapiens, UniProt P00533, INS763LQEA); conditions: Classical-Like, 72 hours
T8 construct: expressed in transfected cells; host or cells: Ba/F3 cells, retroviral pBabe-Puro vector

EGFR K754E = target: T9, EGFR K754E (Homo sapiens, UniProt P00533, K754E); conditions: Classical-Like, 72 hours
T9 construct: expressed in transfected cells; host or cells: Ba/F3 cells, retroviral pBabe-Puro vector

EGFR L747P = target: T10, EGFR L747P (Homo sapiens, UniProt P00533, L747P)
T10 construct: expressed in transfected cells; host or cells: Ba/F3

EGFR E709K = target: T11, EGFR E709K (Homo sapiens, UniProt P00533, E709K)
T11 construct: expressed in transfected cells; host or cells: Ba/F3
Method: (§6) Data represent the ratio of the IC50 value for a given TKI for cells with a PACC EGFR mutation to the IC50 value for cells with wildtype EGFR.
as §2, §5

EGFR S768dupSVD = target: T12, EGFR S768dupSVD (Homo sapiens, UniProt P00533, DUP768-770); conditions: Ex20, 72 hours
T12 construct: expressed in transfected cells; host or cells: Ba/F3 cells, retroviral pBabe-Puro vector

EGFR V774M = target: T13, EGFR V774M (Homo sapiens, UniProt P00533, V774M)
T13 construct: host or cells: Ba/F3
Method: as §6, §2, §5

EGFR L858R T790M V843I = target: T14, EGFR L858R T790M V843I (Homo sapiens, UniProt P00533, L858R/T790M/V843I); conditions: T790M-like-3S, 72 hours
T14 construct: expressed in transfected cells; host or cells: Ba/F3

EGFR G724S = target: T15, EGFR G724S (Homo sapiens, UniProt P00533, G724S)
T15 construct: expressed in transfected cells; host or cells: Ba/F3

EGFR D770insNPG = target: T16, EGFR D770insNPG (Homo sapiens, UniProt P00533, INS770NPG); conditions: Ex20, 72 hours
T16 construct: expressed in transfected cells; host or cells: Ba/F3 cells, retroviral pBabe-Puro vector

EGFR N771dupN = target: T17, EGFR N771dupN (Homo sapiens, UniProt P00533, DUP771-771); conditions: Ex20, 72 hours
T17 construct: expressed in transfected cells; host or cells: Ba/F3 cells, retroviral pBabe-Puro vector
Method: (§7) Data represent the ratio of the IC50 value for a given TKI for cells with an ex20ins EGFR mutation to the IC50 value for cells with wildtype EGFR.
as §2
(§8) After 48-72 hours of transduction, 2 μg/ml puromycin (Invitrogen) was added to Ba/F3 cell lines in complete RPMI. To select for EGFR positive cell lines, cells were stained with PE-EGFR (Biolegend) and sorted by FACS. After sorting, EGFR positive cells were maintained in RPMI containing 10% FBS, 1% penicillin/streptomycin, and 1 ng/ml EGF to support cell viability. Drug screening was performed as previously described^41,42. Shortly, cells were plated in 384-well plates (Greiner Bio-One) at 2000-3000 cells per well in technical triplicate. Seven different concentrations of TKIs or DMSO vehicle were added to reach a final volume of 40 μL per well. After 72 hours, 11 μL of Cell Titer Glo (Promega) was added to each well. Plates were incubated for a minimum of 10 minutes, and bioluminescence was determined using a FLUOstar OPTIMA plate reader (BMG LABTECH). Raw bioluminescence values were normalized to DMSO control treated cells, and values were plotted in GraphPad Prism. […] Drug screens were performed in technical triplicate on each plate and either duplicate or triplicate biological replicates. […] Statistical differences between groups were determined by ANOVA as described in the figure legends.

EGFR H773insNPH = target: T18, EGFR H773insNPH (Homo sapiens, UniProt P00533, INS773NPH); conditions: Ex20, 72 hours
T18 construct: expressed in transfected cells; host or cells: Ba/F3 cells, retroviral pBabe-Puro vector

EGFR V769L = target: T19, EGFR V769L (Homo sapiens, UniProt P00533, V769L)
T19 construct: expressed in transfected cells; host or cells: Ba/F3

EGFR E709A G719S = target: T20, EGFR E709A G719S (Homo sapiens, UniProt P00533, E709A/G719S)
T20 construct: expressed in transfected cells; host or cells: Ba/F3
Method: as §6, §2, §5

EGFR S811F = target: T21, EGFR S811F (Homo sapiens, UniProt P00533, S811F); conditions: Classical-Like, 72 hours
T21 construct: expressed in transfected cells; host or cells: Ba/F3 cells, retroviral pBabe-Puro vector (vector made by GeneScript from EGFR WT)

EGFR G719S T790M = target: T22, EGFR G719S T790M (Homo sapiens, UniProt P00533, G719S/T790M); conditions: T790M-like-3S, 72 hours
T22 construct: expressed in transfected cells; host or cells: Ba/F3
Method: as §4, §2, §5

EGFR Ex19del T854I = target: T23, EGFR Ex19del T854I (Homo sapiens, UniProt P00533, DEL746-750/T854I)
T23 construct: expressed in transfected cells; host or cells: Ba/F3 (retroviral transduction, pBabe-Puro based vectors)

EGFR Ex19del/L792H = target: T24, EGFR Ex19del/L792H (Homo sapiens, UniProt P00533, DEL746-750/L792H)
T24 construct: expressed in transfected cells; host or cells: Ba/F3

EGFR L858R G724S = target: T25, EGFR L858R G724S (Homo sapiens, UniProt P00533, G724S/L858R)
T25 construct: expressed in transfected cells; host or cells: Ba/F3 (retroviral transduction, pBabe-Puro based vectors)
Method: as §6, §2, §5

EGFR A767insASV = target: T26, EGFR A767insASV (Homo sapiens, UniProt P00533, DUP767-769); conditions: Ex20, 72 hours
T26 construct: expressed in transfected cells; host or cells: Ba/F3 cells, retroviral pBabe-Puro vector
Method: as §7, §2, §8

EGFR Ex19del L718V = target: T27, EGFR Ex19del L718V (Homo sapiens, UniProt P00533, DEL746-750/L718V)
T27 construct: expressed in transfected cells; host or cells: Ba/F3

EGFR G719A = target: T28, EGFR G719A (Homo sapiens, UniProt P00533, G719A)
T28 construct: expressed in transfected cells; host or cells: Ba/F3
Method: as §6, §2, §5

SMILES	ratio of IC50 for cells with mutant EGFR to IC50 for cells with wildtype EGFR (Mut/WT) (EGFR Ex19del/T790M/L792H)	ratio of IC50 for cells with mutant EGFR to IC50 for cells with wildtype EGFR (Mut/WT) (EGFR S768I/T790M)	ratio of IC50 for cells with mutant EGFR to IC50 for cells with wildtype EGFR (Mut/WT) (EGFR L833V)	ratio of IC50 for cells with mutant EGFR to IC50 for cells with wildtype EGFR (Mut/WT) (EGFR D761N)	ratio of IC50 for cells with mutant EGFR to IC50 for cells with wildtype EGFR (Mut/WT) (EGFR G724S T790M)	ratio of IC50 for cells with mutant EGFR to IC50 for cells with wildtype EGFR (Mut/WT) (EGFR T790M)	ratio of IC50 for cells with mutant EGFR to IC50 for cells with wildtype EGFR (Mut/WT) (EGFR A763insLQEA)	ratio of IC50 for cells with mutant EGFR to IC50 for cells with wildtype EGFR (Mut/WT) (EGFR K754E)	ratio of IC50 for cells with mutant EGFR to IC50 for cells with wildtype EGFR (Mut/WT) (EGFR S768dupSVD)	ratio of IC50 for cells with mutant EGFR to IC50 for cells with wildtype EGFR (Mut/WT) (EGFR L858R T790M V843I)	ratio of IC50 for cells with mutant EGFR to IC50 for cells with wildtype EGFR (Mut/WT) (EGFR D770insNPG)	ratio of IC50 for cells with mutant EGFR to IC50 for cells with wildtype EGFR (Mut/WT) (EGFR N771dupN)	ratio of IC50 for cells with mutant EGFR to IC50 for cells with wildtype EGFR (Mut/WT) (EGFR H773insNPH)	ratio of IC50 for cells with mutant EGFR to IC50 for cells with wildtype EGFR (Mut/WT) (EGFR S811F)	ratio of IC50 for cells with mutant EGFR to IC50 for cells with wildtype EGFR (Mut/WT) (EGFR G719S T790M)	ratio of IC50 for cells with mutant EGFR to IC50 for cells with wildtype EGFR (Mut/WT) (EGFR A767insASV)	further results
C=CC(=O)N1CC[C@@H](Oc2nc(Nc3ccc(N4CCC(N5CCN(C)CC5)CC4)cc3)c(C(N)=O)nc2CC)C1 [Naquotinib]	4.634	0.1426	0.02478	0.1966	0.1395	0.4037	0.3419	0.04901	1.135	0.01519	1.296	3.012	1.077	0.0351	0.1409	1.61	ratio of the IC50 value for cells with a PACC EGFR mutation to the IC50 value for cells with wildtype EGFR (EGFR E709A; Ba/F3 cells, EGFR E709A (PACC), Mut/WT): 0.0743; ratio of the IC50 value for cells with a PACC EGFR mutation to the IC50 value for cells with wildtype EGFR (EGFR L747P; Ba/F3 cells, EGFR L747P (PACC), Mut/WT): 3.507; ratio of the IC50 value for cells with a PACC EGFR mutation to the IC50 value for cells with wildtype EGFR (EGFR E709K; Ba/F3 cells, EGFR E709K (PACC), Mut/WT): 0.2663; ratio of the IC50 value for cells with a PACC EGFR mutation to the IC50 value for cells with wildtype EGFR (EGFR V774M; Ba/F3 cells, EGFR V774M (PACC), Mut/WT): 0.2862; ratio of the IC50 value for cells with a PACC EGFR mutation to the IC50 value for cells with wildtype EGFR (EGFR G724S; Ba/F3 cells, EGFR G724S (PACC), Mut/WT): 1.174; ratio of the IC50 value for cells with a PACC EGFR mutation to the IC50 value for cells with wildtype EGFR (EGFR V769L; Ba/F3 cells, EGFR V769L (PACC), Mut/WT): 1.624; ratio of the IC50 value for cells with a PACC EGFR mutation to the IC50 value for cells with wildtype EGFR (EGFR E709A G719S; Ba/F3 cells, EGFR E709A G719S (PACC), Mut/WT): 0.3574; ratio of the IC50 value for cells with a PACC EGFR mutation to the IC50 value for cells with wildtype EGFR (EGFR Ex19del T854I; Ba/F3 cells, EGFR Ex19del T854I (PACC), Mut/WT): 1.06; ratio of the IC50 value for cells with a PACC EGFR mutation to the IC50 value for cells with wildtype EGFR (EGFR Ex19del/L792H; Ba/F3 cells, EGFR Ex19del/L792H (PACC), Mut/WT): 0.02929; ratio of the IC50 value for cells with a PACC EGFR mutation to the IC50 value for cells with wildtype EGFR (EGFR L858R G724S; Ba/F3 cells, EGFR L858R G724S (PACC), Mut/WT): 0.5799; ratio of the IC50 value for cells with a PACC EGFR mutation to the IC50 value for cells with wildtype EGFR (EGFR Ex19del L718V; Ba/F3 cells, EGFR Ex19del L718V (PACC), Mut/WT): 0.1035; ratio of the IC50 value for cells with a PACC EGFR mutation to the IC50 value for cells with wildtype EGFR (EGFR G719A; Ba/F3 cells, EGFR G719A (PACC), Mut/WT): 0.1344
CNC(=O)CN1CCC(Oc2cc3c(Nc4cccc(Cl)c4F)ncnc3cc2OC)CC1 [Sapatinib]	451.7	54.78	0.008594	0.001814	48.62	70.5	0.004226	0.00307	2.666	49	5.022	1.24	1.265	0.006549	54.78	2.233	ratio of IC50 for cells with mutant EGFR to IC50 for cells with wildtype EGFR (Mut/WT) (EGFR E709A; PACC, E709A, Ba/F3, 72 hours): 0.3243; ratio of IC50 for cells with mutant EGFR to IC50 for cells with wildtype EGFR (Mut/WT) (EGFR L747P; PACC, L747P, Ba/F3, 72 hours): 0.03076; ratio of IC50 for cells with mutant EGFR to IC50 for cells with wildtype EGFR (Mut/WT) (EGFR E709K; PACC, E709K, Ba/F3, 72 hours): 0.1216; ratio of IC50 for cells with mutant EGFR to IC50 for cells with wildtype EGFR (Mut/WT) (EGFR V774M; PACC, V774M, Ba/F3, 72 hours): 0.05575; ratio of IC50 for cells with mutant EGFR to IC50 for cells with wildtype EGFR (Mut/WT) (EGFR G724S; PACC, G724S, Ba/F3, 72 hours): 0.141; ratio of IC50 for cells with mutant EGFR to IC50 for cells with wildtype EGFR (Mut/WT) (EGFR V769L; PACC, V769L, Ba/F3, 72 hours): 0.1992; ratio of IC50 for cells with mutant EGFR to IC50 for cells with wildtype EGFR (Mut/WT) (EGFR E709A G719S; PACC, E709A G719S, Ba/F3, 72 hours): 0.02227; ratio of IC50 for cells with mutant EGFR to IC50 for cells with wildtype EGFR (Mut/WT) (EGFR Ex19del T854I; PACC, Ex19del T854I, Ba/F3, 72 hours): 0.2548; ratio of IC50 for cells with mutant EGFR to IC50 for cells with wildtype EGFR (Mut/WT) (EGFR Ex19del/L792H; PACC, Ex19del/L792H, Ba/F3, 72 hours): 53.47; ratio of IC50 for cells with mutant EGFR to IC50 for cells with wildtype EGFR (Mut/WT) (EGFR L858R G724S; PACC, L858R G724S, Ba/F3, 72 hours): 0.0004959; ratio of IC50 for cells with mutant EGFR to IC50 for cells with wildtype EGFR (Mut/WT) (EGFR Ex19del L718V; PACC, Ex19del L718V, Ba/F3, 72 hours): 0.08016; ratio of IC50 for cells with mutant EGFR to IC50 for cells with wildtype EGFR (Mut/WT) (EGFR G719A; PACC, G719A, Ba/F3, 72 hours): 0.01264
